Laboratory results published in article PMC10564737, “Structure-based design of a phosphotyrosine-masked covalent ligand targeting the E3 ligase SOCS2” (Nature Communications, 2023).
“And” between values parts separate entries of the source, which are not always exact repeats. Identical values can stand only once. Like-named read-outs stand apart in the source and are kept apart here.

Target: T1, SBC2 (Homo sapiens, UniProt O14508)
T1 construct: SOCS2 (amino acids 32–198); His6 (N, cleaved yes); made in house; host or cells: E. coli BL21(DE3)
T1 sequence (O14508 32-198): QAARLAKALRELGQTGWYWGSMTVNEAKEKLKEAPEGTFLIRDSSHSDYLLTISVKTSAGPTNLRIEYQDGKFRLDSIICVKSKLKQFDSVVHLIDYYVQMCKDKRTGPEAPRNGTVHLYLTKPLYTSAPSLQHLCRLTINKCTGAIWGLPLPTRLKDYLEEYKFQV
T1 sequence (Q15370 1-104 partner limits assumed): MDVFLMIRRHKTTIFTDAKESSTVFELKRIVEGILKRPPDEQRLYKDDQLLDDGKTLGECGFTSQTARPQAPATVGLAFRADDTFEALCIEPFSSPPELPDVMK
T1 sequence (Q15369 17-112 partner limits assumed): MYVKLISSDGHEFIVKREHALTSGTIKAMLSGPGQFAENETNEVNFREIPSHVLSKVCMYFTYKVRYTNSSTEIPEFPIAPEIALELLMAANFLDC
Assay: Covalent fluorescence polarization (FP) probe displacement assay
Format: binding
Conditions: for kinact/KI: read-out: Slope: Kinact/Ki (converted); for Anisotropy based on Raw Data (485): Cycle 7 (30 min); for Fb, fraction bound: Cycle 2 (5 min); for Anisotropy data 485,520,520 / Normalised anisotropy (0 nM MN551 = 1, free probe = 0) / Anisotropy normalised (0 nM MN551 = 1, free probe = 0): n=1
Excerpt: With the specific covalent modification of Cys111 established, we decided to fully characterize MN551 as a covalent SOCS2 inhibitor. […] (Fig. 2g, h, Supplementary Fig. 9). Due to the covalent nature of the competing inhibitor, a time-dependent reduction in the fraction of protein-bound probe is observed. […] This value illustrates reasonable specificity for a covalent inhibitor, with nonetheless scope for future optimization. In addition to characterizing the kinetic covalency parameters, we have also assessed the stability of the MN551 by monitoring its reactivity (half-life >70 min) with reduced glutathione (GSH) (Supplementary Fig. 10)[35].
To monitor the SBC2-ligand binding kinetics we designed a fluorescein-labeled small-molecule probe - compound 26. The fluorescence polarization (anisotropy) of a threefold serial dilution of 50 µM SBC2 in 10 nM of the probe in 100 mM HEPES pH 7.5, 50 mM NaCl, 0.5 mM TCEP, 2% DMSO was measured to determine the KL (Supplementary Fig. 9A) (BMG Labtech PHERAstar – firmware v1.33). Protein titration and the curves were fitted using GraphPad Prism 9, using one-site fitting models to determine the probe binding constant, KL. Samples were run in triplicate in 384 well plates, using a total volume per well of 16 μL. The bound fraction of the probe is measure using the equation:1 Fb=Af−A/Af−Ab Where,
A time-dependent reduction in probe anisotropy were measured for a 2-fold serial dilution of […] compound MN551 in 10 nM probe +300 μM SBC2. To determine the initial reversible binding affinity, the initial bound fraction of the probe at time = 0, Fbo (the y-intercept in Fb v/s Time plot, Supplementary Fig. 9B) was plotted against MN551 concentration, and the obtained IC50 is then converted to Ki (Supplementary Fig. 9C)[17]. The slope from Fb versus time graph when divided by Fbo gives rate of covalency, kobs. A plot of kobs v/s MN551 concentration using Michaelis–Menten model of GraphPad Prism 9, provides the parameters kinact (maximum potential rate of inactivation) and KI (concentration of MN551 at which kobs = kinact/2) (Supplementary Fig. 9D, E).
The observed first-order rate constant, kobs is related to KI and kinact by the equation:2 kobs=kinactI/KI+I
At [I]«[KI] the above equation is converted to3 […]
The slope from the plot of kobs against concentration of MN551 gives us the covalent efficiency parameter kinact/KI (Supp Fig. 9F)[30],[33].

[1] = MN551 12.599 nM, Cycle 11 (50 min)
[2] = MN551 12.599 nM, Cycle 18 (85 min)
[3] = MN551 17.6386 nM, Cycle 11 (50 min)
[4] = MN551 17.6386 nM, Cycle 12 (55 min)
[5] = MN551 17.6386 nM, Cycle 18 (85 min)
[6] = MN551 24.694 nM, Cycle 11 (50 min)
[7] = MN551 24.694 nM, Cycle 12 (55 min)
[8] = MN551 24.694 nM, Cycle 18 (85 min)
[9] = MN551 34.5716 nM, Cycle 11 (50 min)
[10] = MN551 34.5716 nM, Cycle 12 (55 min)
[11] = MN551 34.5716 nM, Cycle 18 (85 min)

SMILES: O=C(CCl)Nc1cccc(CNC(=O)[C@H](Cc2ccc(OP(=O)(O)O)cc2)NC(=O)Cc2ccc(F)cc2)c1 [MN551]
- kinact (FP competition assay to evaluate MN551 covalent efficiency, experiment n=1, from Michaelis-Menten fit (Vmax), read-out: Kinact (converted)): 0.0145 min⁻¹
- kinact (FP competition assay to evaluate MN551 covalent efficiency, experiment n=1, read-out: Kinact (converted)): 0.0145 min⁻¹
- kinact/KI (FP competition assay to evaluate MN551 covalent efficiency, experiment n=1, slope of linear fit, MN551 below Ki titration): 55.8 M⁻¹ s⁻¹
- kinact/KI (FP competition assay to evaluate MN551 covalent efficiency, experiment n=1, slope of linear fit): 55.8 M⁻¹ s⁻¹
- kinact (FP competition assay, replicate n=3, read-out: Kinact (min-1) (converted)): 0.0174 min⁻¹
- kinact (FP competition assay, replicate n=3, read-out: Kinact (s-1)): 0.0174 min⁻¹
- kinact/KI (FP competition assay, replicate n=3): 61.5 M⁻¹ s⁻¹
- Anisotropy based on Raw Data (485) (MN551 12.207 nM): 281.1 and 280.8 and 279.5
- Fb, fraction bound (MN551 12.207 nM): 0.9935 and 1.0185 and 1.023
- Anisotropy (MN551 12.207 nM, Cycle 11 (50 min)): 276.9 and 277 and 280.3
- Anisotropy data 485,520,520 (MN551 12.207 nM, Cycle 18 (85 min)): 272.5 and 273.4 and 274.8
- Anisotropy based on Raw Data (485) (MN551 12.599 nM): 275 and 272 and 270
- Normalised anisotropy (0 nM MN551 = 1, free probe = 0) (MN551 12.599 nM, Cycle 13 (60 min)): 0.9972 and 0.9668 and 1.008
- Normalised anisotropy (0 nM MN551 = 1, free probe = 0) (MN551 12.599 nM, Cycle 14 (65 min)): 1.04 and 1.018 and 1.012
- Fb, fraction bound (MN551 12.599 nM): 1.02 and 0.9926 and 1.014
- Anisotropy [1]: 278.4 and 278.3 and 275.7
- Fb [1]: 1.027 and 1.013 and 1.017
- Fb (MN551 12.599 nM, Cycle 12 (55 min)): 1.006 and 1.0163 and 0.9962
- Anisotropy data 485,520,520 [2]: 273.9 and 272.6 and 271.8
- Anisotropy normalised (0 nM MN551 = 1, free probe = 0) [2]: 1.0213 and 1.004 and 1.0408
- Anisotropy normalised (0 nM MN551 = 1, free probe = 0) (MN551 12.599 nM, Cycle 19 (90 min)): 1.03 and 1.012 and 1.015
- Anisotropy normalised (0 nM MN551 = 1, free probe = 0) (MN551 12.599 nM, Cycle 20 (95 min)): 0.9942 (2×) and 0.9893
- Anisotropy based on Raw Data (485) (MN551 17.6386 nM): 276.7 and 273.3 and 271.3
- Normalised anisotropy (0 nM MN551 = 1, free probe = 0) (MN551 17.6386 nM, Cycle 13 (60 min)): 1.033 and 0.9926 and 1.023
- Normalised anisotropy (0 nM MN551 = 1, free probe = 0) (MN551 17.6386 nM, Cycle 14 (65 min)): 1.058 and 1.0113 and 1.0096
- Fb, fraction bound (MN551 17.6386 nM): 1.066 and 1.015 and 1.047
- Anisotropy [3]: 282.4 and 277.6 and 277.2
- Fb [3]: 1.065 and 1.007 and 1.031
- Anisotropy [4]: 282.3 and 277.4 and 277.1
- Fb [4]: 1.042 and 1.027 and 1.02
- Anisotropy data 485,520,520 [5]: 277.5 and 272.7 and 272.2
- Anisotropy normalised (0 nM MN551 = 1, free probe = 0) [5]: 1.056 and 1.005 and 1.045
- Anisotropy normalised (0 nM MN551 = 1, free probe = 0) (MN551 17.6386 nM, Cycle 19 (90 min)): 1.075 and 1.012 and 1.027
- Anisotropy normalised (0 nM MN551 = 1, free probe = 0) (MN551 17.6386 nM, Cycle 20 (95 min)): 1.027 and 0.9971 and 1.019
- Anisotropy based on Raw Data (485) (MN551 24.4141 nM): 282.9 and 279.8 and 282
- Fb, fraction bound (MN551 24.4141 nM): 1.016 and 1.08 and 1.041
- Anisotropy (MN551 24.4141 nM, Cycle 11 (50 min)): 280.9 and 281.2 and 279.7
- Anisotropy (MN551 24.4141 nM, Cycle 12 (55 min)): 280
- Anisotropy data 485,520,520 (MN551 24.4141 nM, Cycle 18 (85 min)): 276.9 and 277.7 and 276.3
- Anisotropy based on Raw Data (485) (MN551 24.694 nM): 274.8 and 272.6 and 276.9
- Normalised anisotropy (0 nM MN551 = 1, free probe = 0) (MN551 24.694 nM, Cycle 13 (60 min)): 1.02 and 0.977 and 1.0251
- Normalised anisotropy (0 nM MN551 = 1, free probe = 0) (MN551 24.694 nM, Cycle 14 (65 min)): 1.023 and 1.014 and 1.022
- Fb, fraction bound (MN551 24.694 nM): 1.025 and 1.008 and 1.0546
- Anisotropy [6]: 280.6 and 275.8 and 277.4
- Fb [6]: 1.048 and 0.9896 and 1.033
- Anisotropy [7]: 282.7 and 278.3 and 277.5
- Fb [7]: 1.046 and 1.035 and 1.024
- Anisotropy data 485,520,520 [8]: 274.3 and 273.5 and 273.4
- Anisotropy normalised (0 nM MN551 = 1, free probe = 0) [8]: 1.025 and 1.012 and 1.057
- Anisotropy normalised (0 nM MN551 = 1, free probe = 0) (MN551 24.694 nM, Cycle 19 (90 min)): 1.038 and 1.023 and 1.016
- Anisotropy normalised (0 nM MN551 = 1, free probe = 0) (MN551 24.694 nM, Cycle 20 (95 min)): 1.035 and 1.007 and 1.013
- Anisotropy based on Raw Data (485) (MN551 34.5716 nM): 274.4 and 276.1 and 281.6
- Normalised anisotropy (0 nM MN551 = 1, free probe = 0) (MN551 34.5716 nM, Cycle 13 (60 min)): 1.034 and 1.023 and 1.046
- Normalised anisotropy (0 nM MN551 = 1, free probe = 0) (MN551 34.5716 nM, Cycle 14 (65 min)): 1.052 and 1.027 and 1.028
- Fb, fraction bound (MN551 34.5716 nM): 1.054 and 1.044 and 1.086
- Anisotropy [9]: 283.1 and 279.4 and 279.3
- Fb [9]: 1.072 and 1.024 and 1.051
- Anisotropy [10]: 281.9 and 279 and 279.2
- Fb [10]: 1.038 and 1.042 and 1.04
- Anisotropy data 485,520,520 [11]: 278.1 and 277 and 275.1
- Anisotropy normalised (0 nM MN551 = 1, free probe = 0) [11]: 1.062 and 1.046 and 1.074
- Anisotropy normalised (0 nM MN551 = 1, free probe = 0) (MN551 34.5716 nM, Cycle 19 (90 min)): 1.076 and 1.071 and 1.037
- Anisotropy normalised (0 nM MN551 = 1, free probe = 0) (MN551 34.5716 nM, Cycle 20 (95 min)): 1.051 and 1.0281 and 1.04
- Anisotropy based on Raw Data (485) (MN551 48.4003 nM): 280.1 and 278.6 (2×)
- Normalised anisotropy (0 nM MN551 = 1, free probe = 0) (MN551 48.4003 nM, Cycle 13 (60 min)): 1.018 and 0.9871 and 0.9961
- Normalised anisotropy (0 nM MN551 = 1, free probe = 0) (MN551 48.4003 nM, Cycle 14 (65 min)): 1.029 and 1 and 1.015
